Source: publication PMC10062711 (Journal of Molecular Structure, 2023)
Values after ≈ are worked out from the molar mass of the structure shown.

Assays:
A. niger = assay: In vitro antifungal MIC; format: cell-based; conditions: for MIC: Aspergillus niger, read-out: MIC A. niger; for MIC A. niger: 72-96 h incubation
Rhizopus sp = assay: In vitro antifungal MIC; format: cell-based; conditions: for MIC: Rhizopus, read-out: MIC Rhizopus sp; for MIC Rhizopus sp: 72-96 h incubation
P. aeruginosa (MTCC-741) = assay: In vitro antibacterial MIC, microbroth dilution; format: cell-based; conditions: for MIC: Pseudomonas aeruginosa, MTCC741, 24 h, read-out: MIC P. aeruginosa; for MIC P. aeruginosa: 24 h incubation
K. pneumonia (MTCC2272) = assay: In vitro antibacterial MIC, microbroth dilution; format: cell-based, K. pneumoniae; conditions: for inhibitory activity against K. pneumoniae compared to standard drug: versus Streptomycin; for MIC K. pneumoniae: 24 h incubation
A. flavus = assay: In vitro antifungal MIC; format: cell-based; conditions: for MIC: Aspergillus flavus, read-out: MIC A .flavus; for MIC A .flavus: 72-96 h incubation
E. coli (MTCC-443) = assay: In vitro antibacterial MIC, microbroth dilution; format: cell-based; conditions: for MIC: Escherichia coli, MTCC443, 24 h, read-out: MIC E. coli; for MIC E. coli: 24 h incubation
C. albicans = assay: In vitro antifungal MIC; format: cell-based; conditions: for MIC: Candida albicans, read-out: MIC C. albicans; for MIC C. albicans: 72-96 h incubation
[1] = tested on: Mycobacterium tuberculosis H37Rv; assay: Antitubercular activity, Resazurin Assay method; format: cell-based; conditions: for % Inhibition: primary screening (6.5 mg/mL); for antitubercular activity compared to PZA: M. tuberculosis H37Rv, versus PZA
B. subtilis (MTCC-121) = assay: In vitro antibacterial MIC, microbroth dilution; format: cell-based; conditions: for MIC B. subtilius: 24 h incubation; for potency against B. substilius compared to the standard drug: versus Streptomycin
S. aureus (MTCC-96) = assay: In vitro antibacterial MIC, microbroth dilution; format: cell-based; conditions: for MIC S. aureus: 24 h incubation
[2] = tested on: peripheral blood mononuclear cells (PBMC); conditions: MTT assay
[3] = Mycobacterium tuberculosis, H37RV

Row | Compound | MIC [1, 3] | inhibition at 6500 µg/mL [1, 3] | MIC B. subtilius (B. subtilis (MTCC-121)) | MIC A. niger (A. niger) | MIC Rhizopus sp (Rhizopus sp) | MIC P. aeruginosa (P. aeruginosa (MTCC-741)) | MIC K. pneumoniae (K. pneumonia (MTCC2272)) | MIC S. aureus (S. aureus (MTCC-96)) | MIC A .flavus (A. flavus) | MIC E. coli (E. coli (MTCC-443)) | MIC C. albicans (C. albicans) | % Inhibition ([1]; M. tb H37Rv) | further results
1 | CC1C(=NOCc2cn(-c3ccccc3)nn2)CC(c2ccccc2)OC1c1ccccc1 (stereo not shown) [Compound 25, 3-Methyl-2,6-diphenyltetrahydro-4H-pyran-4-one O-((1-phenyl-1H-1,2,3-triazol-4-yl)methyl)oxime] | 6.25 µg/mL (≈ 14.3 µM) | 75% |  |  |  |  |  |  |  |  |  |  | MIC (A. niger): 50 µg/mL (≈ 114 µM); MIC (Rhizopus sp): 25 µg/mL (≈ 57 µM); MIC (P. aeruginosa (MTCC-741)): 12.5 µg/mL (≈ 28.5 µM); inhibitory activity against K. pneumoniae compared to standard drug (K. pneumonia (MTCC2272)): four-fold; MIC (A. flavus): 12.5 µg/mL (≈ 28.5 µM); MIC (E. coli (MTCC-443)): 25 µg/mL (≈ 57 µM); MIC (C. albicans): 25 µg/mL (≈ 57 µM)
2 | CCC1C(=NOCc2cn(-c3ccccc3)nn2)CC(c2ccccc2)OC1c1ccccc1 (stereo not shown) [Compound 26, 3-Ethyl-2,6-diphenyltetrahydro-4H-pyran-4-one O-((1-phenyl-1H-1,2,3-triazol-4-yl)methyl) oxime] | 6.25 µg/mL (≈ 13.8 µM) | 70% |  |  |  |  |  |  |  |  |  |  | MIC (A. niger): 25 µg/mL (≈ 55.2 µM); MIC (Rhizopus sp): 12.5 µg/mL (≈ 27.6 µM); MIC (P. aeruginosa (MTCC-741)): 25 µg/mL (≈ 55.2 µM); inhibitory activity against K. pneumoniae compared to standard drug (K. pneumonia (MTCC2272)): four-fold; MIC (A. flavus): 6.3 µg/mL (≈ 13.9 µM); MIC (E. coli (MTCC-443)): 12.5 µg/mL (≈ 27.6 µM); MIC (C. albicans): 6.3 µg/mL (≈ 13.9 µM)
3 | NNC(=O)c1ccncc1 [INH, isoniazid, reference compound] | 0.1 µg/mL (≈ 0.729 µM) | > 95% |  |  |  |  |  |  |  |  |  |  | 
4 | CC1C(=NOCc2cc(-c3ccc(Cl)cc3)no2)CC(c2ccccc2)OC1c1ccccc1 (stereo not shown) [Compound 31, 3-Methyl-2,6-diphenyltetrahydro-4H-pyran-4-one-O-((3-(4-chlorophenyl)isoxazol-5-yl)methyl) oxime] | 6.25 µg/mL (≈ 13.2 µM) | 90% | 12.5 µg/mL (≈ 26.4 µM) |  |  |  |  |  |  |  |  |  | MIC (A. niger): 50 µg/mL (≈ 106 µM); MIC (Rhizopus sp): 25 µg/mL (≈ 52.9 µM); MIC (P. aeruginosa (MTCC-741)): 12.5 µg/mL (≈ 26.4 µM); potency against B. substilius compared to the standard drug (B. subtilis (MTCC-121)): two-fold; MIC (A. flavus): 12.5 µg/mL (≈ 26.4 µM); MIC (E. coli (MTCC-443)): 12.5 µg/mL (≈ 26.4 µM); MIC (C. albicans): 25 µg/mL (≈ 52.9 µM)
5 | CCC1C(=NOCc2cc(-c3ccc(Cl)cc3)no2)CC(c2ccccc2)OC1c1ccccc1 (stereo not shown) [Compound 32, 3-Ethyl-2,6-diphenyltetrahydro-4H-pyran-4-one O-((3-(4-chlorophenyl)isoxazol-5-yl)methyl) oxime] | 6.25 µg/mL (≈ 12.8 µM) | 91% | 12.5 µg/mL (≈ 25.7 µM) |  |  |  |  |  |  |  |  |  | MIC (A. niger): 25 µg/mL (≈ 51.3 µM); MIC (Rhizopus sp): 12.5 µg/mL (≈ 25.7 µM); MIC (P. aeruginosa (MTCC-741)): 25 µg/mL (≈ 51.3 µM); potency against B. substilius compared to the standard drug (B. subtilis (MTCC-121)): two-fold; MIC (A. flavus): 6.3 µg/mL (≈ 12.9 µM); MIC (E. coli (MTCC-443)): 25 µg/mL (≈ 51.3 µM); MIC (C. albicans): 25 µg/mL (≈ 51.3 µM)
6 | 3,5-Dimethyl-2,6-bis(p-methylphenyl)−4H-pyran-4-one O-((3-(4-chlorophenyl) isoxazol-5-yl)methyl) oxime [Compound 35] |  |  | 12.5 µg/mL | 25 µg/mL | 50 µg/mL | 25 µg/mL | 25 µg/mL | 12.5 µg/mL | 25 µg/mL | 25 µg/mL | 25 µg/mL | 82% | potency against B. substilius compared to the standard drug (B. subtilis (MTCC-121)): two-fold; MIC ([1]; M. tb H37Rv, neutral pH): 6.25 µg/mL
7 | 3,5-Dimethyl-2,6-bis(p-methoxyphenyl)−4H-pyran-4-one O-((1-phenyl-1H-1,2,3-triazol-4-yl)methyl)oxime [Compound 30] |  |  | 25 µg/mL | 12.5 µg/mL |  |  | 25 µg/mL |  |  |  | 25 µg/mL | 80% | 
8 | 3,5-Dimethyl-2,6-bis(p-methylphenyl)pyran-4-one N-isonicotinoylhydrazone [Compound 11] |  |  | 25 µg/mL | 50 µg/mL | 50 µg/mL | 25 µg/mL | 25 µg/mL | 12.5 µg/mL | 25 µg/mL | 12.5 µg/mL | 50 µg/mL | 76% | antitubercular activity compared to PZA [1]: twice; IC50 (cytotoxicity) [2]: 587.6 µg/mL
9 | 3,5-Dimethyl-2,6-bis(p-chlorophenyl)−4H-pyran-4-one O-((1-phenyl-1H-1,2,3-triazol-4-yl) methyl)oxime [Compound 27] |  |  | 50 µg/mL | 25 µg/mL |  | 25 µg/mL | 50 µg/mL | 25 µg/mL | 25 µg/mL | 6.3 µg/mL |  | 75% | inhibitory activity against E. coli compared to Streptomycin (E. coli (MTCC-443); versus Streptomycin): two-fold; MIC ([1]; M. tb H37Rv, neutral pH): 6.25 µg/mL
10 | 3-Methyl-2,6-diphenylpyran-4-one N-isonicotinoylhydrazone [Compound 7] |  |  | 12.5 µg/mL | 50 µg/mL | 25 µg/mL | 12.5 µg/mL | 12.5 µg/mL | 25 µg/mL | 12.5 µg/mL | 6.3 µg/mL | 25 µg/mL | 73% | MIC ([1]; M. tb H37Rv, neutral pH): 6.25 µg/mL
11 | 3,5-Dimethyl-2,6-bis(p-methoxyphenyl)pyran-4-one N-isonicotinoylhydrazone [Compound 12] |  |  | 25 µg/mL | 25 µg/mL | 50 µg/mL | 100 µg/mL | 25 µg/mL | 50 µg/mL | 12.5 µg/mL | 50 µg/mL | 25 µg/mL | 70% | antitubercular activity compared to PZA [1]: twice; IC50 (cytotoxicity) [2]: 609.1 µg/mL
12 | CC[C@@H](CO)NCCN[C@@H](CC)CO [EMB, Ethambutol, reference compound] | 1.56 µg/mL (≈ 7.64 µM) | > 95% |  |  |  |  |  |  |  |  |  |  | 
13 | 3-Ethyl-2,6-diphenyltetrahydro-4H-pyran-4-one O-ethynyl oxime [Compound 20] |  |  | 25 µg/mL | 25 µg/mL | 50 µg/mL | 25 µg/mL | 25 µg/mL | 12.5 µg/mL | 100 µg/mL | 12.5 µg/mL | 100 µg/mL |  | activity against S. aureus compared to the standard drug (S. aureus (MTCC-96); versus Streptomycin): fourfold
14 | 3-Ethyl-2,6-diphenylpyran-4-one N-isonicotinoylhydrazone [Compound 8] |  |  | 6.3 µg/mL | 25 µg/mL | 12.5 µg/mL | 25 µg/mL | 12.5 µg/mL | 50 µg/mL | 25 µg/mL | 6.3 µg/mL | 25 µg/mL | 70% | antitubercular activity compared to PZA [1]: twice; IC50 (cytotoxicity) [2]: 486.2 µg/mL
15 | 3-Methyl-2,6-diphenyltetrahydro-4H-pyran-4-one O-ethynyl oxime [Compound 19] |  |  | 25 µg/mL | 50 µg/mL | 100 µg/mL | 100 µg/mL | 25 µg/mL | 50 µg/mL | 100 µg/mL | 50 µg/mL | 100 µg/mL |  | 
16 | 3,5-Dimethyl-2,6-bis(p-methoxyphenyl)−4H-pyran-4-one O-((3-(4-chlorophenyl) isoxazol-5-yl)methyl)oxime [Compound 36] |  |  | 50 µg/mL | 6.3 µg/mL | 50 µg/mL | 100 µg/mL | 25 µg/mL | 50 µg/mL | 6.3 µg/mL | 25 µg/mL | 25 µg/mL | 75% | MIC ([1]; M. tb H37Rv, neutral pH): 6.25 µg/mL
17 | NC(=O)c1cnccn1 [PZA, pyrazinamide, reference compound] | 6.25 µg/mL (≈ 50.8 µM) | > 90% |  |  |  |  |  |  |  |  |  |  | 
